Key:
MM.1S cells = assay: Tumor cell proliferation IC50 (CCK-8), MM.1S; conditions: Homo sapiens, MM1.S, 72 h, read-out: IC50 for inhibiting the proliferation of tumor cells, MM.1S;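 note: viability of cultured cells read by CCK-8 reagent after compound exposure, growth inhibition curves fitted to derive IC50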
Protocol: (§1) The tumor cells used herein were cultured in a cell culture medium listed in table A at 37° C. in an incubator with 5% CO2.
(§2) After the cells were treated with the compounds of the present disclosure for a period of time, the cell viability detection reagent was added to the culture medium for cell viability assessment according to the instructions provided with the CCK-8 kit. […] The growth inhibition of the compounds of the present disclosure on cells was plotted by Prism Graphpad software, and the IC50 values of the compounds of the present disclosure were calculated therefrom.

IKZF1 protein = IKZF1 protein (Homo sapiens (Human), UniProt Q13422+Q96SW2); assay: Western-blot assay of substrate protein degradation in hPBMC, IKZF1; type: cell-based; conditions: hPBMC cells, compound 500 nM, 24 hours, Western blot
IKZF1 protein, sequence (Q13422 whole entry): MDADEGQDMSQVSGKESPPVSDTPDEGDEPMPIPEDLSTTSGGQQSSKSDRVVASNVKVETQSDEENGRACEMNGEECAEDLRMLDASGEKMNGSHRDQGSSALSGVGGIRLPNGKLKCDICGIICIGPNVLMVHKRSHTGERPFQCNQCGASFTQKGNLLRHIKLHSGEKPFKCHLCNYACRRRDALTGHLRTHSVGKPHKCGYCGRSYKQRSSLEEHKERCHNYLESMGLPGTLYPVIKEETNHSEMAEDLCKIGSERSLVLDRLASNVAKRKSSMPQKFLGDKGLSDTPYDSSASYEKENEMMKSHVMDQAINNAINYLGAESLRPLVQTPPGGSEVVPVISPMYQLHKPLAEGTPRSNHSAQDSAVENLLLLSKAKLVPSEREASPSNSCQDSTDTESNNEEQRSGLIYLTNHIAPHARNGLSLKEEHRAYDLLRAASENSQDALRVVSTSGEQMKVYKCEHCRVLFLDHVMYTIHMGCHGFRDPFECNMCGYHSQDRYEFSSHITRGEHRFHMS
IKZF1 protein, sequence (Q96SW2 whole entry): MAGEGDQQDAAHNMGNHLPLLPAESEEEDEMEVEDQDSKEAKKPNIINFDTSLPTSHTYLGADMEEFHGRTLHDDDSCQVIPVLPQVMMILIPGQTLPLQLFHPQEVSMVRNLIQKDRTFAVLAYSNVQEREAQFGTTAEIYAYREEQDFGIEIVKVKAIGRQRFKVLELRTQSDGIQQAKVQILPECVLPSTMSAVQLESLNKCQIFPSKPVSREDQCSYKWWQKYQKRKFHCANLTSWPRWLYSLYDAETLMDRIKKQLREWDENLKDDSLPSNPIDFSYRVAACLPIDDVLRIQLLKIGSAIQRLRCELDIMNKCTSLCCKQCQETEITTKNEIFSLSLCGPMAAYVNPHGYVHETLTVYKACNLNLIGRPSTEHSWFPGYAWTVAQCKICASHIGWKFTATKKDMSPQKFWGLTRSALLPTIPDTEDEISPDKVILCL
IKZF1 protein, sequence (Q16531 whole entry partner): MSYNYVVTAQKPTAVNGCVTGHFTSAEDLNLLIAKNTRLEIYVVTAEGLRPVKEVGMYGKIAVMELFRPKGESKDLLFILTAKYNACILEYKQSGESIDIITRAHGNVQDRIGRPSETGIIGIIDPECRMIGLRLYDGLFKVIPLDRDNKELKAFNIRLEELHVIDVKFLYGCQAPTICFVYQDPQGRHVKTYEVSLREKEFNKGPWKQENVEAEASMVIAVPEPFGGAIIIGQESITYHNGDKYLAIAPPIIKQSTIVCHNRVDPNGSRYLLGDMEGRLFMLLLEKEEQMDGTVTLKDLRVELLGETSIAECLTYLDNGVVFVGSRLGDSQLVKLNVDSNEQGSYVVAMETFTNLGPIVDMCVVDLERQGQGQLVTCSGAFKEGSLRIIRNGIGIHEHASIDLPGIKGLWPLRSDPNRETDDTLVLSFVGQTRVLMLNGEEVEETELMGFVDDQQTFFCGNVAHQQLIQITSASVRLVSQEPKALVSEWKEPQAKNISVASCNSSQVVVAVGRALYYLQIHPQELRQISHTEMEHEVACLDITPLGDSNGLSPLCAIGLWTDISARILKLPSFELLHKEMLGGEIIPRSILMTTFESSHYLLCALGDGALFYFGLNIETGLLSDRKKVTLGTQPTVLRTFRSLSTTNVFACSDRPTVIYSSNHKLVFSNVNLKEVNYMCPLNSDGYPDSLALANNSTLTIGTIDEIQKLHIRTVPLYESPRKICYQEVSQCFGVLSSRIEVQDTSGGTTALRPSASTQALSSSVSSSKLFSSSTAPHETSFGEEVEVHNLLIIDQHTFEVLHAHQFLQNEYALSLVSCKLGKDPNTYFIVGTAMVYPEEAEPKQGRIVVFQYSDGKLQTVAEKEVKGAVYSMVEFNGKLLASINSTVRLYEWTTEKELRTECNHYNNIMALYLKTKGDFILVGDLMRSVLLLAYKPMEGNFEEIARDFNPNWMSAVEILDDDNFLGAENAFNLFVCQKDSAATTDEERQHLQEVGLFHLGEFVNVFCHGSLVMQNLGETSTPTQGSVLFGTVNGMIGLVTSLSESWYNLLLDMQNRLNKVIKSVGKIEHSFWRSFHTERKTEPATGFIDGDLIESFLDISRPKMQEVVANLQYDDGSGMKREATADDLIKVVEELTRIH

MV-4-11 cells = assay: Tumor cell proliferation IC50 (CCK-8), MV-4-11; conditions: Homo sapiens, MV4-11, 96 h, read-out: IC50 for inhibiting the proliferation of tumor cells, MV-4-11
Protocol: as §1, §2

CCRF-CEM cells = assay: Tumor cell proliferation IC50 (CCK-8), CCRF-CEM; conditions: Homo sapiens, 96 h, read-out: IC50 for inhibiting the proliferation of tumor cells, CCRF-CEM;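 note: cell viability measured with CCK-8 reagent after compound treatment, IC50 taken from plotted growth inhibition curves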
Mino cells = assay: Tumor cell proliferation IC50 (CCK-8), Mino; conditions: Homo sapiens, 72 h, read-out: IC50 for inhibiting the proliferation of tumor cells, Mino;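 note: cell viability assessed with CCK-8 reagent after compound exposure, IC50 derived from plotted growth inhibition curves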
IKZF3 protein = IKZF3 protein (Homo sapiens (Human), UniProt Q96SW2+Q9UKT9); assay: Western-blot assay of substrate protein degradation in hPBMC, IKZF3; type: cell-based; conditions: hPBMC cells, compound 500 nM, 24 hours, Western blot
IKZF3 protein, sequence (Q9UKT9 whole entry): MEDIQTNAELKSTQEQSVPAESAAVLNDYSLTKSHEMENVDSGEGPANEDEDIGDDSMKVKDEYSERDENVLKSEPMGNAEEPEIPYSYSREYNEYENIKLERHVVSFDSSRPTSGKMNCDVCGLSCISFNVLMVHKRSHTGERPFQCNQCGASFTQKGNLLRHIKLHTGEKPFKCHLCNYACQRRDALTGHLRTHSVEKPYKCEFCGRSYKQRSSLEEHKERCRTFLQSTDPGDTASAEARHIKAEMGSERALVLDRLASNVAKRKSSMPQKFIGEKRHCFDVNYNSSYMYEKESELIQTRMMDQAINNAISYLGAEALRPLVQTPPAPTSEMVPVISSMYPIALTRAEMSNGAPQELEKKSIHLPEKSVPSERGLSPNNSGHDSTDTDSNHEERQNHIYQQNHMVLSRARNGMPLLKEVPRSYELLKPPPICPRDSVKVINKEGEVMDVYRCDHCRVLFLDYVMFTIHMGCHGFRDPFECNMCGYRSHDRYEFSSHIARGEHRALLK
IKZF3 protein, sequence (Q96SW2 whole entry): as the sequence (Q96SW2 whole entry) above
IKZF3 protein, sequence (Q16531 whole entry partner): as the sequence (Q16531 whole entry partner) above

GSPT1 protein = GSPT1 protein (Homo sapiens (Human), UniProt P15170+Q96SW2); assay: Western-blot assay of substrate protein degradation in hPBMC, GSPT1; type: cell-based; conditions: hPBMC cells, compound 500 nM, 24 hours, Western blot
GSPT1 protein, sequence (P15170 whole entry): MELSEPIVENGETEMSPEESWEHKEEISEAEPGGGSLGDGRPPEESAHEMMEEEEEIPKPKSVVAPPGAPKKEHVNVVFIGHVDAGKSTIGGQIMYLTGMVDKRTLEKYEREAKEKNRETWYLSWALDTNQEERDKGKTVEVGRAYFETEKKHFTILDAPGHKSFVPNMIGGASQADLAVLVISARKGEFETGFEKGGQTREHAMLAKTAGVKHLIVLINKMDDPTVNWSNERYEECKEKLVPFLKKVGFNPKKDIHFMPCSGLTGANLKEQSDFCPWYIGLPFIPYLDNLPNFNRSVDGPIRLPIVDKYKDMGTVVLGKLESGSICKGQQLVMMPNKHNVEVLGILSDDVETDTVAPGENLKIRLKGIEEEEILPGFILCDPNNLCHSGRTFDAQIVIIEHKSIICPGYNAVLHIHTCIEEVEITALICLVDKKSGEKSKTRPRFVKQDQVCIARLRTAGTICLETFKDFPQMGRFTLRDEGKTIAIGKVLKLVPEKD
GSPT1 protein, sequence (Q96SW2 whole entry): as the sequence (Q96SW2 whole entry) above
GSPT1 protein, sequence (Q16531 whole entry partner): as the sequence (Q16531 whole entry partner) above

[1] = biological target: human Cereblon WT GST-tagged protein (Homo sapiens (Human), UniProt Q96SW2); assay: CRBN-binding affinity, HTRF (CEREBLON BINDING kit)
human Cereblon WT GST-tagged protein, sequence (Q96SW2 whole entry): as the sequence (Q96SW2 whole entry) above
In short: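 GST-tagged human WT Cereblon incubated with compound, then Thalidomide-Re tracer and anti-GST Eu antibody added. Displacement read by HTRF, reported as CRBN binding inhibition rate against blank control wells without protein.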

[2] = Pharmacokinetic study, oral administration, mouse plasma; type: in vivo, mice
Protocol: The experimental animals used can be those commonly used in pharmacokinetic experiments, e.g., adult and healthy rodents (e.g., mice, rats (such as Sprague-Dawley (SD) rats), guinea pigs) or non-rodents (rabbits, dogs, and monkeys). In the present disclosure, mice were used as the experimental animals.
The experimental animals were divided into two groups: a control group (for collecting blank plasma) and an orally administered group (dosed at 10 mg/kg or 30 mg/kg). Blood samples were collected at predetermined sampling time points after administration, such as 0.25 h, 0.5 h, 1 h, 2 h, 4 h, 8 h, and 24 h post-dosing. Blank plasma was collected from the control group.
Plasma samples were preprocessed before analysis: 10 μL of 50% acetonitrile and 200 μL of internal standard solution (containing 50 ng/mL dexamethasone in acetonitrile) were added to 10 μL of plasma samples. For the blank control group, the same volume of acetonitrile was added instead of the internal standard. The processed samples were vortexed, centrifuged, and the supernatant was taken for LC-MS/MS injection analysis.
After preparing standard curves and quality control (QC) samples, the concentrations of the compounds in the plasma samples were determined by LC-MS/MS analysis. Based on the plasma concentration data obtained from LC-MS/MS analysis, the pharmacokinetic parameters of the test compounds were calculated using the non-compartmental model in the pharmacokinetic calculation software WinNonlin v8.1.

Daudi cells = assay: Tumor cell proliferation IC50 (CCK-8), Daudi; conditions: Homo sapiens, read-out: IC50 for inhibiting the proliferation of tumor cells, Daudi;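 note: cell viability read with CCK-8 reagent after compound exposure of Daudi cells, IC50 derived from plotted growth inhibition curves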

| SMILES | IC50 (MM.1S cells) [nM] | residual substrate protein level, IKZF1 (IKZF1 protein) | IC50 (MV-4-11 cells) [nM] | IC50 (CCRF-CEM cells) [nM] | IC50 (Mino cells) [nM] | residual substrate protein level, IKZF3 (IKZF3 protein) | residual substrate protein level, GSPT1 (GSPT1 protein) | IC50 [1] [nM] | AUC(0-t) ([2]; p.o. 10 mg/kg) [ng·h/mL] | AUC(0-t) ([2]; p.o. 30 mg/kg) [ng·h/mL] | IC50 (Daudi cells) [nM] |
| --- | --- | --- | --- | --- | --- | --- | --- | --- | --- | --- | --- |
| CC1(C)CCC(CN2CCN(Cc3ccc4c(c3F)CN(C3CCC(=O)NC3=O)C4=O)CC2)=C(c2ccc(F)cc2)C1 (stereo not drawn) [GT-05390, 3-(4-fluoro-5-((4-((4′-fluoro-5,5-dimethyl-3,4,5,6-tetrahydro-[1,1′-biphenyl]-2-yl)methyl)piperazin-1-yl)methyl)-1-oxoisoindolin-2-yl)piperidine-2,6-dione] | 10 to 50 | A (A represents a residual substrate protein level of <50%) | 100 to 500 | 50 to 100 | 10 to 50 | A (A represents a residual substrate protein level of <50%) | A (A represents a residual substrate protein level of <50%) | 500 | – | – | – |
| CC1(C)CCC(CN2CC3CCC(C2)N3Cc2cc3c(cc2F)C(=O)N(C2CCC(=O)NC2=O)C3)=C(c2ccc(Cl)cc2)C1 (stereo not drawn) [GT-05494, 3-(5-((3-((4′-chloro-5,5-dimethyl-3,4,5,6-tetrahydro-[1,1′-biphenyl]-2-yl)methyl)-3,8-diazabicyclo[3.2.1]octan-8-yl)methyl)-6-fluoro-1-oxoisoindolin-2-yl)piperidine-2,6-dione] | 500 to 1000 | A (A represents a residual substrate protein level of <50%) | 100 to 500 | 100 to 500 | – | A (A represents a residual substrate protein level of <50%) | A (A represents a residual substrate protein level of <50%) | – | – | – | – |
| O=C1CCC(N2Cc3cc(CN4CCN(Cc5ccccc5-c5ccc(F)cc5)CC4)ccc3C2=O)C(=O)N1 (stereo not drawn) [GT-04256, 3-(5-((4-((4′-fluoro-[1,1′-biphenyl]-2-yl)methyl)piperazin-1-yl)methyl)-1-oxoisoindolin-2-yl)piperidine-2,6-dione] | – | A (A represents a residual substrate protein level of <50%) | – | – | – | A (A represents a residual substrate protein level of <50%) | A (A represents a residual substrate protein level of <50%) | 1420 | ≤ 500 | – | – |
| CC1(C)CCC(CN2CCN(Cc3cccc4c3CN(C3CCC(=O)NC3=O)C4=O)CC2)=C(c2ccc(Cl)cc2)C1 (stereo not drawn) [GT-03649, 3-(4-((4-((4′-chloro-5,5-dimethyl-3,4,5,6-tetrahydro-[1,1′-biphenyl]-2-yl)methyl)piperazin-1-yl)methyl)-1-oxoisoindolin-2-yl)piperidine-2,6-dione] | – | – | – | – | – | – | – | – | – | > 500 | – |
| O=C1CCC(N2Cc3cc(CN4CCN(Cc5ncccc5-c5ccc(Cl)cc5)CC4)ccc3C2=O)C(=O)N1 (stereo not drawn) [GT-05778, 3-(5-((4-((3-(4-chlorophenyl)pyridin-2-yl)methyl)piperazin-1-yl)methyl)-1-oxoisoindolin-2-yl)piperidine-2,6-dione] | < 5 | A (A represents a residual substrate protein level of <50%) | – | < 5 | < 5 | A (A represents a residual substrate protein level of <50%) | A (A represents a residual substrate protein level of <50%) | 560 | – | – | 5 to 10 |
| O=C1CCC(N2Cc3cc(CC4CN(C(=O)c5ccccc5-c5ccc(Cl)cc5)C4)ccc3C2=O)C(=O)N1 (stereo not drawn) [GT-03922, 3-(5-((1-(4′-chloro-[1,1′-biphenyl]-2-carbonyl)azetidin-3-yl)methyl)-1-oxoisoindolin-2-yl)piperidine-2,6-dione] | – | A (A represents a residual substrate protein level of <50%) | – | – | – | A (A represents a residual substrate protein level of <50%) | A (A represents a residual substrate protein level of <50%) | 160 | ≤ 500 | – | – |
